Results on 3 compounds are retold here after PMC6571685, “Rippled β-Sheet Formation by an Amyloid-β Fragment Indicates Expanded Scope of Sequence Space for Enantiomeric β-Sheet Peptide Coassembly” (Molecules, 2019).

Holding throughout (assay type): physicochemical
Data set [1] is described as follows: Transmission electron microscopy of assemblies, fibril widths. To be noted: assembled 21 days in PBS pH 7.4, 5% DMSO, 37 °C, washed with water, uranyl acetate stain; ImageJ, averages from 100–150 measurements. As for the experimental part: Dried, disaggregated peptide aliquots were prepared for assembly as in sedimentation assays, but in larger volumes (greater than or equal to 5 mL) and were allowed to assemble for 21 days so as to allow for complete assembly of all samples. Following assembly, samples were centrifuged at 4300 × g for 90 min at 17 °C to collect aggregates. The supernatant was then carefully removed and deionized water added, mixed, and centrifugation repeated to wash. After first wash, supernatant was again removed and deionized water added and mixed, at which point samples were spotted for TEM or SEM if desired (below). Centrifugation was repeated once more and supernatant removed, and then samples were frozen and lyophilized. Lyophilized pellets were then placed on the solid-state stage of a Shimadzu FTIR-8400S (Shimadzu Corporation, Nakagyo-ku, Kyoto, Japan) spectrometer and analyzed at a resolution of 4 cm^−1.
Fibrils for the TEM images reported were obtained from the same samples that were used for FTIR, above, at the same timepoint. […] TEM images were recorded on a Hitachi 7650 transmission electron microscope in high contrast mode with an accelerating voltage of 80 kV. Fibril widths were measured in ImageJ and are reported as averages from 100–150 measurements.

The nature of data set [2]: HPLC sedimentation assay (modified Wetzel protocol) of peptide self-assembly / coassembly. As to the method:
(§1) The self-assembly of L- and D-Ac-KLVFFAE-NH2 peptides was compared to the assembly properties of an equimolar mixture of the enantiomers. The peptides were prepared via standard Fmoc solid phase peptide synthesis, purified by reverse-phase HPLC, and characterized by MALDI-TOF mass spectrometry (see Materials and Methods section for experimental details and Supplementary Materials for characterization and purity data). Prior to self-assembly, peptides were disaggregated by sequential treatment with trifluoroacetic acid and hexafluoroisopropanol using a modified Wetzel protocol; peptide concentrations were determined by comparison to standard analytical HPLC curves (see Supplementary Materials for details), as described previously for studies with Aβ(16–22). Disaggregated, lyophilized peptides were then dissolved in DMSO and diluted into phosphate-buffered saline (pH 7.4) to reach total peptide concentrations of 110 μM (55 μM of each L- and D-enantiomer for mixed coassembly studies) (final DMSO concentration was 5% v/v). Upon dilution, peptides were incubated at 37 °C for assembly.
Comparison of self-assembly and coassembly of Aβ(16–22) was conducted by a time-dependent sedimentation analysis. For these studies, we adapted Wetzel’s HPLC sedimentation protocol that we have previously used to assess Aβ(16–22) self-assembly. Aliquots of self-assembly and coassembly mixtures were removed over time and subjected to ultracentrifugation to remove fibrils and […] order aggregates after which the concentration of unaggregated peptide was quantified. In these analyses, equilibrium between monomer and fibril is eventually reached, with the final monomer concentration, or critical concentration (Cr), providing a quantitative characterization of the dynamic equilibrium between fibrils of length n and monomer with fibrils of length n + 1. […]
Sedimentation assays were performed using a modified Wetzel protocol. […] These solutions were then analyzed by analytical HPLC for correlation to a concentration curve to determine remaining monomer concentration.

The nature of data set [3]: Visual observation of precipitate after dilution into PBS. To be noted: 110 μM total peptide, DMSO stock diluted into PBS pH 7.4, 5% v/v DMSO. As for the experimental part:
as §1

Square brackets hold non-standard residues; d marks the D form. Peptide text beside a SMILES is read from it.

As to `CC(=O)N[C@H](CCCCN)C(=O)N[C@H](CC(C)C)C(=O)N[C@@H](C(=O)N[C@H](Cc1ccccc1)C(=O)N[C@H](Cc1ccccc1)C(=O)N[C@H](C)C(=O)N[C@H](CCC(=O)O)C(N)=O)C(C)C` [D-Aβ(16–22), D-Ac-KLVFFAE-NH2] (Ac-[dK][dL][dV][dF][dF][dA][dE]-NH2), in data set [1], the “width of assemblies (TEM)” value is on record as 11.8 ± 0.5 nm.
Turning to `CC(=O)N[C@@H](CCCCN)C(=O)N[C@@H](CC(C)C)C(=O)N[C@H](C(=O)N[C@@H](Cc1ccccc1)C(=O)N[C@@H](Cc1ccccc1)C(=O)N[C@@H](C)C(=O)N[C@@H](CCC(=O)O)C(N)=O)C(C)C` [L-Aβ(16–22), Ac-KLVFFAE-NH2] (Ac-KLVFFAE-NH2), the “width of assemblies (TEM)” value in data set [1] is recorded as 11.8 ± 0.5 nm.
On to “Ac-KLVFFAE-NH2 [single enantiomer Aβ(16–22), self-assembled single enantiomer Aβ(16–22) sample (L- or D-enantiomer alone), pleated β-sheet]”, for which, in data set [2] (110 μM total peptide (55 μM each enantiomer in mixture), PBS pH 7.4, 5% v/v DMSO, 0.1% NaN3, 37 °C, up to 21 days, aliquots centrifuged 436,000 × g 1 h 4 °C, supernatant monomer by analytical HPLC), the “critical concentration (Cr), final monomer concentration at equilibrium” value came out at 24 ± 6 µM. For the same compound, in data set [2] (110 μM total peptide, PBS pH 7.4, 5% DMSO, 37 °C, monomer by HPLC after ultracentrifugation), the “time to reach equilibrium (constant monomer concentration)” value is recorded as “required over two weeks to reach a constant monomer concentration”. In addition, the “ΔG for addition of monomer to fibril at equilibrium” value in data set [2] (from Cr = 1/Ka, PBS pH 7.4, 5% DMSO, 37 °C, 110 μM total peptide) was -6.6 ± 0.2 kcal/mol. Also, the “visible precipitate immediately after gentle mixing” value in data set [3] is listed as “not in the single enantiomer self-assembly controls”.
